Columns and labels:
[1] = target: T1, guanylyl cyclase C (GC-C) (Rattus norvegicus, UniProt P23897); assay: biochemical; assay type: biochemical; conditions: for guanylyl cyclase activation by peptide: 10 μM peptide, presence or absence of 1 mM ATP; for maximum inhibition of guanylyl cyclase: with or without ST; for inhibition at 1000 µM: read-out: decrease of Vmax of guanylyl cyclase
T1 construct: The mucosal layer was scraped from the intestine and homogenized; from tissue; host or cells: small intestinal mucosa of Sprague-Dawley rats (100,000×g washed membrane pellet)
Protocol: (§1) Membranes were prepared from rat intestinal mucosa cells as described previously (Gazzano et al., (1991) Infect. Immun., 59, 1552-1557, which is incorporated herein by reference). Briefly, Sprague-Dawley rats were sacrificed, small intestine removed and rinsed in ice-cold 0.9% NaCl. All procedures were conducted at 4° C. The mucosal layer was scraped from the intestine and homogenized in 50 mM Tris-HCl (pH 7.6) containing 1 mM dithiothreitol, 1 mM EDTA and 1 mM phenylmethylsulfonyl fluoride, (TED) supplemented with 0.25M sucrose (TEDS). Homogenates were centrifuged at 100,000×g for 60 minutes and the resulting pellet was sequentially washed in (i) TED supplemented with 0.5M KCl, (ii) TED:TEDS (1:1) and (iii) TED. The final pellet was homogenized in TED at a protein concentration of 5-10 mg/mL and aliquots were stored at -70° C.
Guanylyl cyclase activity was assayed as described previously (Waldman et al., (1984) J. Infect. Dis., 149, 83-89, which is incorporated herein by reference). Membranes were incubated at 37° C. in a final volume of 100 μl in the presence of 50 mM Tris-HCl (pH 7.6) containing 10 mM theophylline, 7.5 mM creatine phosphate/[…] creatine phosphokinase (160 U/mg of protein), GTP, manganese or magnesium cofactor (2 mM in excess of nucleotide) and ST and/or adenine nucleotide where indicated. Reactions were initiated by addition of membrane, incubated 5 minutes and terminated by adding 400 μl of 50 mM sodium acetate (pH 4.0) and boiling for 5 minutes. Following acetylation, samples were diluted with 50 mM NaAc containing 20 mM CaCl2. Generated cGMP was quantified by radioimmunoassay as described previously (Waldman et al., (1984) J. Infect. Dis., 149, 83-89). Radioimmunoassays were performed in triplicate, enzyme reactions were performed in duplicate, and results are representative of at least 3 experiments. Enzyme activity was linear with respect to protein concentration and time for all experiments.
Protein concentration was measured by the method of Bradford (Bio-Rad) using bovine serum albumin as standard (Bradford, M. M., (1976) Anal. Biochem., 72, 248-254). All assays were performed in duplicate and data are representative of at least 3 experiments. Values reported for the S0.5 and Vmax are equivalent to the concentration of substrate yielding half-maximum guanylyl cyclase activity and the maximum velocity of the enzyme activity, respectively. All nucleotides were obtained from Sigma, except 2-chloroadenosine 5'-triphosphate (2ClATP) which were from Research Biochemicals Incorporated (Natick, Mass.).

P2y purinergic receptors = conditions: cited from earlier work
[2] = test system: GC-C in membranes from T84 and Caco 2 cells; assay: Guanylyl cyclase activity in membranes prepared from T84 and Caco 2 cells; assay type: biochemical
Source text: Guanylyl cyclase C undergoes post-translations processing yielding multiple ST-binding proteins detected in crosslinking studies utilizing ^125 I-ST or by Western blot analysis (Vaandrager et al., (1993) J. Biol. Chem., 268, 2174-2179; Vaandrager et al., (1993) J. Biol. Chem., 268, 19598-19603; Ivens et al., (1990) Infect. Immun., 58, 1817-1820; de Sauvage et al., (1993) J. Biol. Chem., 267, 6479-6482; Cohen et al., (1993) J. Cell. Physiol., 156, 138-144). Post-translational processing of GC-C appears to reflect heterogenicity of glycosylation and proteolysis. Processing has been observed in membranes examined from intestinal mucosal cells, intestinal cells grown in vitro, and mammalian cells expressing cloned rat or human GC-C. Thus, the shift in apparent cooperativity with associated changes in Hill coefficients induced by 2-substituted adenine nucleotides could reflect differences in their effects on different populations of GC-C in intestinal membranes. Guanylyl cyclase C is the predominant, […], member of the particulate guanylyl cyclase family expressed by T84 and Caco 2 cells in vitro (Vaandrager et al., (1992) Gastroenterology, 102, 1161-1169). […]

ST receptor (GC-C) = assay: ST receptor binding assay ([125I]-ST) in rat intestinal membranes; conditions: 1 mM nucleotide, presence or absence of GTP and magnesium
Protocol: as §1, with “Homogenates were centrifuged at 100,000×g for 60 minutes and the resulting pellet was sequentially washed in (i) TED supplemented with 0.5M KCl, (ii) TED:TEDS (1:1) and (iii) TED. The final pellet was homogenized in TED at a protein concentration of 5-10 mg/mL and aliquots were stored at -70° C.” left out
ST binding was quantified as described previously (Hugues et al., (1991) Biochemistry, 30, 10738-10745, which is incorporated herein by reference). […] Parallel incubations contained excess (10^-6 M) unlabeled ST to quantify non-specific binding. Reaction mixtures were incubated for 40 minutes at 37° C. and bound [^125 I]-ST was separated from free ligand by vacuum filtration through Whatman (GF/B glass fiber filters pretreated with 0.3% polyethyleneimine. Filters were washed with 10 ml of 20 mM phosphate-buffered saline (pH 7.2) containing 1 mM EDTA. Radioactivity which remained on the filter was quantified in a Packard γ-counter. Specific binding was determined by subtracting non-specific binding from the total [^125 I]-ST bound in the absence of unlabeled ligand. Non-specific binding was routinely less than 20% of total binding.

[3] = magnesium cofactor, basal and ST (1 μM)-activated
[4] = manganese cofactor (1.6 without nucleotide)

T1 sequence (P23897 23-1072): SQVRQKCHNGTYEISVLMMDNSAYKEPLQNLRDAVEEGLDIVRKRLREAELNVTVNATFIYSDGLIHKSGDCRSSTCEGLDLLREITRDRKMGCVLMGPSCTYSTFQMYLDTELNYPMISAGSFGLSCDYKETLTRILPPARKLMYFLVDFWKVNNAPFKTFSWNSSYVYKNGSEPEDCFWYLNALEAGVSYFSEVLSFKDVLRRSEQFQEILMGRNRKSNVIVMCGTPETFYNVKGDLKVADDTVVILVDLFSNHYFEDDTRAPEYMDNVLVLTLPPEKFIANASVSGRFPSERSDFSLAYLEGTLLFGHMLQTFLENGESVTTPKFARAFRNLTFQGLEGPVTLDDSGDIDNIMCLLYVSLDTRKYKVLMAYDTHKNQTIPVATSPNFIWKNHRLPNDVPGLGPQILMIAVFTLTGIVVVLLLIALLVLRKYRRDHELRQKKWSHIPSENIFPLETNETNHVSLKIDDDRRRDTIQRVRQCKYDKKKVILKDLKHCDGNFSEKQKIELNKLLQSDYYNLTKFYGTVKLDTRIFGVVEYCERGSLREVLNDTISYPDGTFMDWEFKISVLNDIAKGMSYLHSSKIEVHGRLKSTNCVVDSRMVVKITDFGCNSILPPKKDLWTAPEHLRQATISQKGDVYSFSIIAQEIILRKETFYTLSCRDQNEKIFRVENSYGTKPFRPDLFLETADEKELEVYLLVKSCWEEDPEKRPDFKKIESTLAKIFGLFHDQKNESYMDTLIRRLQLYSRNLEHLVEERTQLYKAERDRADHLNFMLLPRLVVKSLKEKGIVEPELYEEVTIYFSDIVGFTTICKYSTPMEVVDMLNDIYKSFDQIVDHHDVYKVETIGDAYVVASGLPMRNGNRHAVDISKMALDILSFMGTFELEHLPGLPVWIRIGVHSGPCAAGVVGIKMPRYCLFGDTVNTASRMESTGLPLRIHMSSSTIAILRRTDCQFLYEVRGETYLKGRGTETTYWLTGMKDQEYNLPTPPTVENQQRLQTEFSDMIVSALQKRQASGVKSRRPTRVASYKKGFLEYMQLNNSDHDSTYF

Molecule: CNP: C-type natriuretic peptide, ligand of GC-B [reference compound]
- guanylyl cyclase activation by peptide [1]: did not exhibit guanylyl cyclase activation

Molecule: Nc1ncnc2c1ncn2[C@@H]1O[C@H](COP(=O)(O)CP(=O)(O)OP(=O)(O)O)[C@@H](O)[C@H]1O [AMPCPP, α,β-methylene adenosine 5'-triphosphate, reference compound]
- ligand potency for P2y receptors (P2y purinergic receptors): poor ligand for P2y receptors

Molecule: Nc1ncnc2c1ncn2[C@@H]1O[C@H](COP(O)(O)=S)[C@@H](O)[C@H]1O [AMPS, adenosine 5'-O-thiomonophosphate, reference compound]
- effect on guanylyl cyclase activity [1, 3]: potentiated guanylyl cyclase activation by ST in a concentration-dependent fashion
- effect on guanylyl cyclase activity ([1]; manganese cofactor): did not significantly inhibit guanylyl cyclase
- Ka to potentiate ST-activation of guanylyl cyclase when 2ClATP is incorporated ([1]; with 2ClATP at 0.3 mM): unchanged

Molecule: Nc1nc(Cl)nc2c1ncn2[C@@H]1O[C@H](CO)[C@@H](O)[C@H]1O [2ClAdo]
- effect on guanylyl cyclase activity ([1]; manganese cofactor): did not significantly inhibit guanylyl cyclase

Molecule: CSc1nc(N)c2ncn([C@@H]3O[C@H](COP(=O)(O)OP(=O)(O)OP(=O)(O)O)[C@@H](O)[C@H]3O)c2n1 [2MeSATP]
- Ki ([1]; Ki for inhibition of guanylyl cyclase, 20 μM GTP): 390 ± 260 µM
- Ki ([1]; Ki for inhibition of guanylyl cyclase, 1000 μM GTP): 280 ± 180 µM
- Ki values in the presence or absence of ST ([1]; magnesium cofactor): not significantly different
- Hill coefficient of guanylyl cyclase in the presence of nucleotide ([1]; magnesium cofactor, 1 mM nucleotide, presence and absence of ST): about 1.0
- effect on guanylyl cyclase activity [1, 3]: inhibited guanylyl cyclase activity
- maximum inhibition of guanylyl cyclase ([1]; magnesium cofactor): > 95%
- effect on Vmax and S0.5 ([1]; magnesium cofactor, nucleotide 1 mM, presence or absence of ST): lowered the Vmax without significantly changing the S0.5
- effect on guanylyl cyclase activity ([1]; manganese cofactor): inhibited guanylyl cyclase in a concentration-dependent fashion
- guanylyl cyclase activity inhibited ([1]; manganese cofactor): > 95%
- Hill coefficient of guanylyl cyclase in the presence of nucleotide [1, 4]: 0.7
- effect on S0.5 ([1]; manganese cofactor, 1 mM nucleotide): only a small effect on the S0.5
- inhibition at 1000 µM [1]: > 90%
- effect on cooperativity of GC-C [2]: shift from positive to negative cooperativity
- inhibition of GC-C [2]: potently inhibited GC-C

Molecule: ANP: atrial natriuretic peptides, ligand of GC-A [reference compound]
- guanylyl cyclase activation by peptide [1]: did not exhibit guanylyl cyclase activation

Molecule: Nc1ncnc2c1ncn2[C@@H]1O[C@H](CO[P@](=O)(O)O[P@](=O)(O)O[P@@](=O)(O)S)[C@@H](O)[C@H]1O [ATPγS, adenosine 5'-O-(3-thiotriphosphate), reference compound]
- maximal activation of guanylyl cyclase ([1]; magnesium cofactor, in the presence of ST (1 μM)): 2- to 3 fold
- effect on guanylyl cyclase activity ([1]; manganese cofactor): inhibited guanylyl cyclase in a concentration-dependent fashion

Molecule: Nc1ncnc2c1ncn2[C@@H]1O[C@H](COP(=O)(O)OP(O)(O)=S)[C@@H](O)[C@H]1O [ADPβS, adenosine 5'-O-(2-thiodiphosphate), reference compound]
- ligand potency for P2y receptors (P2y purinergic receptors): potent ligand for P2y receptors

Molecule: Nc1ncnc2c1ncn2[C@@H]1O[C@H](COP(=O)(O)OP(=O)(O)OP(=O)(O)O)[C@@H](O)[C@H]1O [ATP, reference compound]
- effect on guanylyl cyclase activity [1, 3]: activated guanylyl cyclase in a concentration-dependent manner but with a lower efficacy than ATPγS
- effect on guanylyl cyclase activity ([1]; manganese cofactor): inhibited guanylyl cyclase in a concentration-dependent fashion
- Hill coefficient of guanylyl cyclase in the presence of nucleotide [1, 4]: less than 1.0
- S0.5 of guanylyl cyclase in the presence of nucleotide ([1]; manganese cofactor, 1 mM nucleotide (0.08 mM without)): 0.25 mM
- concentration at which the nucleotide inhibits guanylyl cyclase activity (biphasic dose-response) ([1]; rat intestinal membranes): above 1 mM
- inhibition at 1000 µM [1]: 80%

Molecule: Nc1nc(Cl)nc2c1ncn2[C@@H]1O[C@H](COP(=O)(O)OP(=O)(O)OP(=O)(O)O)[C@@H](O)[C@H]1O [2ClATP, 2-chloroadenosine 5'-triphosphate]
- Ki ([1]; Ki (concentration yielding half-maximum inhibition)): 300 µM
- guanylyl cyclase activity inhibited ([1]; in the presence of maximally activating concentrations of AMPS): > 95%
- Ki values in the presence or absence of ST ([1]; magnesium cofactor): not significantly different
- effect on guanylyl cyclase activity [1, 3]: inhibited guanylyl cyclase activity
- maximum inhibition of guanylyl cyclase ([1]; magnesium cofactor): > 95%
- effect on guanylyl cyclase activity ([1]; manganese cofactor): inhibited guanylyl cyclase in a concentration-dependent fashion
- guanylyl cyclase activity inhibited ([1]; manganese cofactor): > 95%
- Ki when AMPS is incorporated in enzyme incubations ([1]; with maximally activating AMPS (3 mM)): unchanged
- specific binding of [125I]-ST to intestinal membranes (ST receptor (GC-C)): unchanged
